Reference: patent US20090130064A1, “DIFFERENTIATION OF STEM CELLS AND STABILIZATION OF PHENOTYPICAL PROPERTIES OF PRIMARY CELLS” (priority 2004, published 2009)

Tests used:
[1] = system: cyclin D1; assay: Western blotting of cyclin D1 in primary rat hepatocytes; format: cell-based; conditions: 50 μM; 72 hours
Source text: Male outbred Sprague-Dawley rats (200-300 g, Iffa Credo, Brussels, Belgium) were kept under controlled environmental conditions (12-hr light-dark cycle) and fed a standard diet (Animafabo A04, water ad libitum). Hepatocytes were isolated by a two-step collagenase perfusion as described (De Smet et al. In ‘Methods in Molecular Biology, Vol. 107: Cytochrome P450 Protocols’, Philips I R and Shephard E A, eds., pp 295-301, Humana Press, Totowa, 1998). Cell liability was >90% as determined by trypan blue exclusion. Cells (0.4×10^5 cells/cm^2) were plated in MEM/M199 (3:1), containing BSA (1 mg/ml), bovine insulin (10 μg/ml), L-glutamine (2 mM), FBS (10% v/v) and antibiotics (7.3 IU/ml benzyl penicillin, 50 μg/ml streptomycin sulphate, 50 μg/ml kanamycin monosulphstep and 10 μg/ml sodium ampicillin). Four hours after plating, serum-containing medium was removed and fresh serum-free medium was added to the cultures. Culture medium was refreshed daily. […]
Total cell extracts were prepared as described previously (Papeleu et al. J Hepatol 39: 374-382, 2003) and proteins (25 or 50 μg per lane) were separated electrophoretically by SDS-PAGE and electroblotted onto nitrocellulose membranes (Amersham Pharmacia Biotech, Buckinghamshire, UK). […] Proteins were detected using the ECL detection system (Amersham Pharmacia Biotech, Buckinghamshire, UK) according to the manufacturer's recommendations.

[2] = system: primary rat hepatocytes; assay: Biotransformation in hepatocyte culture by HPLC with ESI-MS/UV; format: in vitro ADME; conditions: 50 μM; after 20 hours
Experimental: Cells were cultured for 24 hours in the presence of EGF, alone or in combination with 4-Me2N-BAVAH; culture media were renewed and the expression of p21 was subsequently analyzed at short time intervals (0.5, 1, 6 and 24 hours) (FIG. 18B). In untreated EGF-stimulated hepatocytes, cyclin D1 and p21 proteins were induced 0.5 hour after medium renewal. A maximum was reached 24 hours later, namely after 48 hours of culture. As expected, no cyclin D1 and p21 proteins could be detected in 4-Me2N-BAVAH-treated cells, not even after short exposure periods (FIG. 18B). In addition, we quantified the biotransformation rate of 4-Me2N-BAVAH using high-performance liquid chromatography (HPLC) combined with simultaneous electrospray ionization mass spectrometric (ESI-MS)/UV detection. […] These findings clearly indicate that 4-Me2N-BAVAH interferes with the mitogenic effects of EGF resulting in a failure to induce cyclin D1 and p21 expression.

[3] = system: rat hepatocytes; assay: Albumin ELISA in primary rat hepatocyte monolayers (conditions C1, C2); format: cell-based; conditions: 1 μM TSA; from D4 (C2) or D7 (C1) on
Experimental: (§1) In all conditions, the hepatocytes were cultivated as a monolayer configuration, and samples were taken at days 1, 4 and 7 (D1, D4, D7) of the cultivation time.
ALB concentrations secreted into the media were analysed by competitive enzyme-linked immunosorbent assay (ELISA) as described (Koebe et al. Int J Artif Organs 17: 95-106, 1994). The ALB levels were normalized with respect to the media used.

[4] = system: hMSC; assay: Albumin ELISA, ALB secretion by hMSC; format: cell-based, human; conditions: for ALB secreted: sequential + 1 μM TSA from day 6
Experimental: Low-density hMSC (CD45^−, Thy^+) were cultivated at 21.5 10^3 cells cm^2 on 1 mg/ml collagen gel type I matrix in the presence of liver-specific (LSP) cytokines, added either as a cocktail [basal medium supplemented with 10 ng/ml FGF-4 (fibroblast growth factor type 4), 20 ng/ml HGF (hepatic growth factor) (all from R&D), 1×ITS (insulin, transferrin, selenious acid) and 0.05 μM Dex (dexamethasone) (all from Sigma)] or sequentially [basal medium supplemented with 10 ng/ml FGF-4, following basal media supplemented with 20 ng/ml HGF (R&D) and finally basal medium supplemented with 20 ng/ml HGF, 1×ITS and 0.05 μM Dex]. Basal medium consisted of 60% (v/v) DMEM-LG/40% (v/v) MCDB-201 supplemented with 1 mg/ml LA-BSA, 100 IU/ml penicillin, 100 μg/ml streptomycin, 0.1 mM L-ascorbic acid, 4 μg/ml nicotinamide, 27.3 mg/l sodium-pyruvate and 1.623 mM glutamin (all from Sigma). The media were changed every three days.
ALB concentrations secreted into the media were analysed by a competitive enzyme-linked immunosorbent assay (ELISA) as described (Koebe et al. Int J Artif Organs 17: 95-106, 1994). The ALB levels were normalized with respect to the media used.

[5] = system: gap junctional intercellular communication; assay: GJIC scrape loading/dye transfer assay; format: cell-based, rat; conditions: 1 μM TSA; from D4 on
Experimental: as §1
Scrape loading/dye transfer assay was performed as described by el-Fouly et al., 1987: 422-430. In brief, hepatocytes were scraped in the presence of 0.05% m/V Lucifer Yellow and incubated for 5 minutes at 37° C. The dye was then removed, cells were rinsed twice with PBS and fixed with 4% m/V paraformaldehyde. Evaluation was performed by fluorescence microscopy. The distance traveled by Lucifer Yellow from the scrape was used as a parameter to evaluate GJIC functionality.

[6] = system: Cx32; assay: Cx32 expression (immunoblotting) in rat hepatocytes; format: cell-based; conditions: 1 μM TSA
Experimental: as §1
Proteins (25 or 50 μg) were resolved on SDS-PAGE (7.5, 10 or 12%) and blotted afterwards onto nitrocellulose membranes. After blocking with non-fatty milk, membranes were incubated with appropriate concentrations of primary and secondary antibodies (HRP labeled). Proteins were detected using the ECL detection system (Amersham Biosciences). Primary antibodies: Cx26 (Zymed, 1/250), Cx32 (Sigma, 1/500), Cx43 (Zymed, 1/100).
Hepatocytes were fixed with cold ethanol, peremeabilised with Triton X-100 (Sigma) and blocked with non-fatty milk. Following incubation with appropriate concentrations of primary and secondary antibodies (FITC or TRITC labeled), samples were mounted with DAPI-containing Vectashield (Vector Laboratories). Detection was performed by fluorescence microscopy (Leica DMR/XA).

Structure (SMILES)	cyclin D1 protein accumulation upon growth factor stimulation [1]	metabolites detected in culture [2]	albumin secretion [3]	ALB secretion ([4]; cocktail + 1 μM TSA, not significant)	ALB levels ([4]; conditioned medium, sequential + TSA, day 17)	difference in ALB secretion between cells with and without TSA ([4]; conditioned medium, sequential, TSA day 0 until HGF, day 15)	ALB secreted ([4]; day 15)	ALB secreted ([4]; day 17)	GJIC activity [5]	expression of Cx32 [6]
CN(C)c1ccc(C(=O)NCCCCC(=O)NO)cc1 [4-Me2N-BAVAH, 5-(4-dimethylaminobenzoyl)-aminovaleric acid hydroxamide]	completely failed to accumulate cyclin D1 protein	No metabolites of the compound could be detected								
CC(C=CC(=O)NO)=CC(C)C(=O)c1ccc(N(C)C)cc1 (stereo not shown) [TSA]			improves albumin secretion	upregulation	2.26 ± 0.092 µg/mL	2.28 fold	2.019 ± 0.144 µg/mL	3.456 ± 0.08 µg/mL	increases GJIC activity	induces the expressions
